# Measurements reported in US20140323500A1, “NADPH OXIDASE 4 INHIBITORS AND USE THEREOF” (GENKYOTEX SA, priority 2011, published 2014).
# Target: T1, human Nox4 (Homo sapiens, UniProt Q9NPH5)
# T1 construct: expressed in transfected cells; host or cells: T-REx-293 (hNOX4 T-REx-293), tetracycline-induced; membrane fraction
# T1 sequence (Q9NPH5 1-578): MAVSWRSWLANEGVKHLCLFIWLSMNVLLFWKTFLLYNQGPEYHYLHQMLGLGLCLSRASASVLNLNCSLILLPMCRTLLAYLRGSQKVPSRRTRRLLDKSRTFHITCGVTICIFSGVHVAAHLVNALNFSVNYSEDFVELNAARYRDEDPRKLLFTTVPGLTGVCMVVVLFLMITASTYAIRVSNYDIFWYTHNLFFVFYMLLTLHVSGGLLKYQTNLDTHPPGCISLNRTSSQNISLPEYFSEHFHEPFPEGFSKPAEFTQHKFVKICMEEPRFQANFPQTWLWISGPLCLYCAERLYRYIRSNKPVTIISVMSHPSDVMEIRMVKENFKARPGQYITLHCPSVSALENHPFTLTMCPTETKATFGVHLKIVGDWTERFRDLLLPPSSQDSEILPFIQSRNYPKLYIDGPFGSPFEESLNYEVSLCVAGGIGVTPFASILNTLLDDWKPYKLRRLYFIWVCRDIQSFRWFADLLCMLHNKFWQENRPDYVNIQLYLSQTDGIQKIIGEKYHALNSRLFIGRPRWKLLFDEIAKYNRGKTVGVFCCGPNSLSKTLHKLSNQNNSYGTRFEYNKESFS
# T1 sequence (P13498 2-195 partner limits assumed): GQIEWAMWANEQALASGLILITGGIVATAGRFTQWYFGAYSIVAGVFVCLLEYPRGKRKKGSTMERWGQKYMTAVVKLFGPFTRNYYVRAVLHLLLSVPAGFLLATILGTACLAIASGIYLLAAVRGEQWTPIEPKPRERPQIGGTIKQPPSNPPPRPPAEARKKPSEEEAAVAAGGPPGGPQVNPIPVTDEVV
# Assay: ROS production by membranes expressing human Nox4, cell-free Amplex Red assay
# Assay type: biochemical
# Details: cell-free membranes, Amplex Red; Cheng-Prusoff; average of at least three experiments in triplicate; read-out: Ki hNox4
# Description: (§1) The Nox4 activity of Nox4 inhibitors according to the invention may be tested for their activity in the inhibition or reduction of formation of reactive oxygen species (ROS) from oxygen in cell free assays. In order to fully characterise Nox4 inhibitors, Nox subunit-specific cell-free, membrane-based systems have been developed and specific recombinant proteins have been added to membranes heterologously over-expressing their specific iso form. Nox enzymes produce superoxide (O2.−) as primary product, however due to the high instability and reactivity of this molecule which dismutates naturally into hydrogen peroxide (H2O2), therefore, read-out techniques involving probes that do measure H2O2 were used (e.g. using Amplex Red as a probe in order to facilitate consistent and accurate measurements). The activity of the compounds is tested in the following cell free assay using the techniques described here below:
# Transfected T-REx™-CHO cells (R718-07) purchased from Invitrogen and T-REx™-293 cell line expressing hNOX4 (hNOX4 T-REx™-293) (Serrander et al., 2007, Biochem. J., 406, 105-114) were cultured in […]. Both media were supplemented with 10% FBS, 2 mM glutamine, penicillin (100 U/ml) and streptomycin (100 μg/ml). Selection pressure was maintained by continuous inclusion of blasticidin (5 μg/ml), and/or G418 (0.25 mg/ml), and/or Hygromycin (0.25 mg/ml) and/or zeocin (0.025 mg/ml).
# (§2) Human Nox1, Nox2, Nox4, and Nox5 expression were induced with Tetracycline (1 μg/ml) during 24 h prior to the membrane preparation Membranes from transfected cells overexpressing Nox1, Nox2, Nox4 or Nox5 were prepared as previously described in Palicz et al., 2001, J. Biol. Chem., 76, 3090-3097. After resuspension in sonication buffer (11% sucrose, 120 mM NaCl, 1 mM EGTA in PBS, pH 7.4 for Nox4- or NOX5-expressing cells) or in relax buffer (10 mM Pipes, 3 mM NaCl, 3.5 mM MgCl2, 0.1M KCl, pH 7.4), cells were broken by sonication and centrifuged (200 g, 10 min). The supernatant was layered onto a 17/40% (w/v) discontinuous sucrose gradient and centrifuged (150,000×g for 60 min). Membrane fractions were collected from the 17/40% interface and were stored at −80° C. Protein concentration was determined with the Bradford reagent.
# (§3) Reactive Oxygen Species (ROS) production by membranes expressing either human Nox1, or human Nox2 or human Nox4 or human Nox5 or by xanthine/xanthine oxidase were measured using the Amplex Red (AR) method following a slightly modified version of the manufacturer's instruction manual (Invitrogen). Briefly, membranes or xanthine were incubated in PBS with Amplex Red, Horse Radish Peroxidase (HRP) and appropriated co-factors. ROS production was induced by addition of NADPH to NOX-expressing membrane or by addition of xanthine to xanthine oxidase. Non-specific signal was measured in the absence of membranes or in the absence of xanthine.
# Antagonist activity of compounds was measured in the presence of increasing concentrations ranging from 1 nM to 100 μM. After an incubation of 20 min in a plate shaker and incubator (Titramax 1000, VWR) at 37° C. with weak agitation (300 rpm), ROS levels were measured for 10 min in a BMG Fluostar microplate reader with excitation and emission wavelengths of 544 nm and 590 nm respectively.
# Data were analysed using Prism (GraphPad Software Inc., San Diego, Calif.). Ki values were calculated using the Cheng-Prusoff equation and represent the average of at least three individual experiments performed in triplicate (Table 1). Nox4 inhibition was compared to that measured for Simvastatin (Enzo Life Sciences, CAS Number 79902-63-9) using the method described in Example 1. Reactive Oxygen Species (ROS) production by membranes expressing human Nox4 was measured using the Amplex Red (AR).
row,Compound,Ki [nM]
1,"COc1cc(Cn2c(-c3ccc(Cl)cc3F)c3c(=O)n(-c4ccccc4Cl)[nH]c3cc2=O)ccn1 [(26), 4-(4-chloro-2-fluorophenyl)-2-(2-chlorophenyl)-5-[(2-methoxypyridin-4-yl)methyl]-1H-pyrazolo[4,3-c]pyridine-3,6(2H,5H)-dione]",105
2,"COc1ccc(-c2c3c(=O)n(-c4ccccc4OC)[nH]c3cc(=O)n2Cc2ccn(C)n2)cc1 [(23), 2-(2-methoxyphenyl)-4-(4-methoxyphenyl)-5-[(1-methyl-1H-pyrazol-3-yl)methyl]-1H-pyrazolo[4,3-c]pyridine-3,6(2H,5H)-dione]",98
3,"O=c1c2c(-c3cc(Cl)ccc3F)n(Cc3ccncc3)c(=O)cc2[nH]n1-c1ccccc1Cl [(12), 4-(5-chloro-2-fluorophenyl)-2-(2-chlorophenyl)-5-(pyridin-4-ylmethyl)-1H-pyrazolo[4,3-c]pyridine-3,6(2H,5H)-dione]",79
4,"CN(C)c1cccc(-c2c3c(=O)n(-c4ccccc4Cl)[nH]c3cc(=O)n2Cc2ccn(C)n2)c1 [(43), 2-(2-chlorophenyl)-4-[3-(dimethylamino)phenyl]-5-[(1-methyl-1H-pyrazol-3-yl)methyl]-1H-pyrazolo[4,3-c]pyridine-3,6(2H,5H)-dione]",126
5,"O=c1c2c(-c3c(F)cccc3F)n(Cc3ccncc3)c(=O)cc2[nH]n1-c1ccccc1Cl [(28), 2-(2-chlorophenyl)-4-(2,6-difluorophenyl)-5-(pyridin-4-ylmethyl)-1H-pyrazolo[4,3-c]pyridine-3,6(2H,5H)-dione]",109
6,"COc1ccc(F)c(-c2c3c(=O)n(-c4ccccc4OC)[nH]c3cc(=O)n2Cc2cnccn2)c1 [(41), 4-(2-fluoro-5-methoxyphenyl)-2-(2-methoxyphenyl)-5-(pyrazin-2-ylmethyl)-1H-pyrazolo[4,3-c]pyridine-3,6(2H,5H)-dione]",148
7,"O=c1c2c(-c3cccc(Cl)c3F)n(Cc3ccncc3)c(=O)cc2[nH]n1-c1ccccc1Cl [(31), 4-(3-chloro-2-fluorophenyl)-2-(2-chlorophenyl)-5-(pyridin-4-ylmethyl)-1H-pyrazolo[4,3-c]pyridine-3,6(2H,5H)-dione]",112

# Continued, values first:
row,Ki [nM],Compound
1,69,"COc1cc(Cn2c(C)c3c(=O)n(-c4ccccc4Cl)[nH]c3cc2=O)ccn1 [(6), 2-(2-chlorophenyl)-5-[(2-methoxypyridin-4-yl)methyl]-4-methyl-1H-pyrazolo[4,3-c]pyridine-3,6(2H,5H)-dione]"
2,94,"COc1cccc(-c2c3c(=O)n(-c4ccccc4OC)[nH]c3cc(=O)n2Cc2ccn(C)n2)c1 [(20), 2-(2-methoxyphenyl)-4-(3-methoxyphenyl)-5-[(1-methyl-1H-pyrazol-3-yl)methyl]-1H-pyrazolo[4,3-c]pyridine-3,6(2H,5H)-dione]"
3,129,"O=c1c2c(-c3cccc(Cl)c3F)n(Cc3cccnc3)c(=O)cc2[nH]n1-c1ccccc1Cl [(38), 4-(3-chloro-2-fluorophenyl)-2-(2-chlorophenyl)-5-(pyridin-3-ylmethyl)-1H-pyrazolo[4,3-c]pyridine-3,6(2H,5H)-dione]"
4,99,"COc1cccc(-c2c3c(=O)n(-c4ccccc4OC)[nH]c3cc(=O)n2Cc2cccnc2)c1 [(24), 2-(2-methoxyphenyl)-4-(3-methoxyphenyl)-5-(pyridin-3-ylmethyl)-1H-pyrazolo[4,3-c]pyridine-3,6(2H,5H)-dione]"
5,148,"O=c1c2c(-c3c(F)cccc3F)n(Cc3cccnc3)c(=O)cc2[nH]n1-c1ccccc1Cl [(40), 2-(2-chlorophenyl)-4-(2,6-difluorophenyl)-5-(pyridin-3-ylmethyl)-1H-pyrazolo[4,3-c]pyridine-3,6(2H,5H)-dione]"
6,115,"COc1ccc(-c2c3c(=O)n(-c4ccccc4OC)[nH]c3cc(=O)n2Cc2cccnc2)cc1 [(33), 2-(2-methoxyphenyl)-4-(4-methoxyphenyl)-5-(pyridin-3-ylmethyl)-1H-pyrazolo[4,3-c]pyridine-3,6(2H,5H)-dione]"

# Target: T2, human Nox2 (Homo sapiens, UniProt P04839)
# T2 construct: host or cells: T-REx-CHO (hNOX2 T-REx-CHO), tetracycline-induced; membrane fraction
# T2 sequence (P04839 2-570 limits assumed): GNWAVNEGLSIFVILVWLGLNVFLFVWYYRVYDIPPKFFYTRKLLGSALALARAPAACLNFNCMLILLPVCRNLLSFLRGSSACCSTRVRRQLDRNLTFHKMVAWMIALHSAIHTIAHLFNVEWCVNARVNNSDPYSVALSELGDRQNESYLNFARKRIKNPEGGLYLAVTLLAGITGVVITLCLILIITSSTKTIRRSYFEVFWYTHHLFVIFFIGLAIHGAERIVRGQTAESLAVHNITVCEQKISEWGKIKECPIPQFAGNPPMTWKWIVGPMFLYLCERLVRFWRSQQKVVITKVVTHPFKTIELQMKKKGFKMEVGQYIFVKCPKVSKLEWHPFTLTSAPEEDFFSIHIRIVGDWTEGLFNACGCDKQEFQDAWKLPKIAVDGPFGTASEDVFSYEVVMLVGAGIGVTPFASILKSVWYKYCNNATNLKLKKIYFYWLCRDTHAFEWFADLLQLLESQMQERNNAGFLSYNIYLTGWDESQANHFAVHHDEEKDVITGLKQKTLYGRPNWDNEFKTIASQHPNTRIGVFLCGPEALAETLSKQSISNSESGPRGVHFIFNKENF
# T2 sequence (P13498 2-195 partner limits assumed): T1 sequence (P13498 2-195 partner limits assumed)
# Assay: ROS production by membranes expressing human Nox2, cell-free Amplex Red assay
# Assay type: biochemical
# Details: cell-free membranes, Amplex Red; Cheng-Prusoff; average of at least three experiments in triplicate; read-out: Ki hNox2
# Description: as §1
# Human Nox1 (NM_007052.4), human NOX2 (NM_000397), and human NOX5 (NM_0245052244) cDNAs were cloned into the pcDNA5/TO (Invitrogen). Human p22 (NM_000101.2) was cloned into pcDNA3.1/Zeo (+) (Invitrogen), and human NOXA1 (AY255769.1) and human NOXO1 (AB097667) were cloned into the bi-cistronic pVITRO1-neo-mcs plasmid (Invivogen).
# Cells were transfected by using the FuGENE 6 method. Cells stably expressing functional human Nox1 (hNOX1 T-REx™-CHO) were obtained by co-transfecting T-REx™-CHO cells with human Nox1, human p22, human NOXA1 and human NOXO1. Cells stably expressing functional human Nox2 (hNOX2 T-REx™-CHO) were obtained by co-transfecting T-REx™-CHO cells with human nox2, human p22 and human cofactors. Cells stably expressing functional human Nox5 (hNOX5 T-REx™-CHO) were obtained by transfecting T-REx™-CHO cells with human Nox5. Co-transfected cells were selected with the appropriate antibiotics for 10 days. For the selection, hygromycin and G418 were used at 2 mg/ml and zeocin at 0.1 mg/ml. For the establishment of each stably transfected cell line, a pool of antibiotic-resistant cells was generated. Cells were cloned by limiting dilution. Several clones were established and investigated for ROS production upon tetracycline-induced hNox expression using a cellular AR assay. The expression of NOXes was done with tetracycline (1 μg/ml) during 24 h prior to the assay.
# as §2, §3
# Antagonist activity of compounds was measured in the presence of increasing concentrations ranging from 1 nM to 100 μM. […]
row,Ki [nM],Compound
1,565,"COc1cc(Cn2c(-c3ccc(Cl)cc3F)c3c(=O)n(-c4ccccc4Cl)[nH]c3cc2=O)ccn1 [(26), 4-(4-chloro-2-fluorophenyl)-2-(2-chlorophenyl)-5-[(2-methoxypyridin-4-yl)methyl]-1H-pyrazolo[4,3-c]pyridine-3,6(2H,5H)-dione]"
2,715,"COc1cc(Cn2c(C)c3c(=O)n(-c4ccccc4Cl)[nH]c3cc2=O)ccn1 [(6), 2-(2-chlorophenyl)-5-[(2-methoxypyridin-4-yl)methyl]-4-methyl-1H-pyrazolo[4,3-c]pyridine-3,6(2H,5H)-dione]"
